Data set [1] concerns the target T1, adenosine deaminase (Homo sapiens, UniProt P00813).
T1 sequence (P00813 1-363): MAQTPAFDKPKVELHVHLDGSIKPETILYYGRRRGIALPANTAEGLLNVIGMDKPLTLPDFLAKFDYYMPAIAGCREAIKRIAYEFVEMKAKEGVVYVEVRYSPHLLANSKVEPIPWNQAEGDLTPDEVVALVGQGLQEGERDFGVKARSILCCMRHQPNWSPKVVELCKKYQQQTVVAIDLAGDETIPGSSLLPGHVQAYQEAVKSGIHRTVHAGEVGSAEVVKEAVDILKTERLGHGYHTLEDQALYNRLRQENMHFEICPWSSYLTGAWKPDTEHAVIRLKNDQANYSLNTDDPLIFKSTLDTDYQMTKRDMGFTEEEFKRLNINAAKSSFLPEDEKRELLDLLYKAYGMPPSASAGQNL
Conditions: prior patents, in words; cited from earlier work.

Data set [2] relates to DNA viruses, especially herpes and vaccinia viruses. Conditions: U.S. Pat. No. 3,616,208; mammals; cited from earlier work.
The target of data set [3] is T1, adenosine deaminase. Conditions: cited from earlier work.
In data set [4] the target is T1, adenosine deaminase. The data set can be described thus: biochemical. The method, then:
The potency of 2'-chloropentostatin as an adenosine deaminase inhibitor was determined using the following methods. The velocity (in moles/minute/ml) of the reaction of adenosine deaminase with adenosine was measured for several concentrations of the enzyme in the presence of various concentrations of the inhibitor, 2'-chloropentostatin. The data has been plotted in FIG. 1 in the form of an Ackerman-Potter plot (see W. W. Ackerman and V. R. Potter, Proc. Soc. Exp. Biol. Med., 72:1 (1949)).
The values of Vo /Vi =2 for each curve yield the I50 for the enzyme inhibitor at each substrate concentration. These I50 values have been plotted versus substrate concentration in FIG. 3.

For data set [5], the system named is Streptococcus faecalis 05045. Briefly: Agar disc diffusion, zone of inhibition vs. Streptococcus faecalis 05045. Format: cell-based. Conditions: Enterococcus faecalis, 12.7 mm disc, 37°, overnight, read-out: Zone diameter. As for the experimental part:
Paper disks (12.7 mm in diameter) impregnated with an aqueous solution containing varying amounts of 2'-chloropentostatin were placed on a layer of agar containing AM-10 assay medium (Table 4) and inoculated with Streptococcus faecalis 05045. After incubation at 37° overnight the following zones of inhibition were observed: […]
For orientation: A growth-free zone around the sample is the usual read-out of agar diffusion tests.

`OC[C@H]1O[C@@H](n2cnc3c2N=CNC[C@H]3O)[C@H](O)[C@@H]1O` [coformycin, (R) -3-(beta-D-ribofuranosyl)-3,6,7,8-tetrahydroimidazo[4,5-d][1,3]diazepin-8-ol]: the “inhibition of adenosine deaminase” value at adenosine deaminase [1] is given as “potent inhibitors of adenosine deaminase”.

As to `Nc1ncnc2c1ncn2[C@@H]1O[C@H](CO)[C@@H](O)[C@@H]1O` [9-(beta-D-arabinofuranosyl)adenine], the “treatment of DNA viruses” value in data set [2] is on record as “useful agent for the treatment of DNA viruses”. For the same compound, the “biological efficacy, limitation by deamination/deactivation in vivo” value on adenosine deaminase [3] is recorded as “greatly diminished by the rapid deamination”.

As for `OC[C@H]1O[C@@H](n2cnc3c2N=CNC[C@H]3O)[C@H](Cl)[C@@H]1O` [2'-chloropentostatin, (R)-3-(2-chloro-2deoxy-beta-D-ribofuranosyl)-3,6,7,8-tetrahydroimidazo[4,5-d][1,3]diazepin-8-ol], at adenosine deaminase [4], the affinity, expressed as Ki, was 0.1 nM. Further, the “type of inhibition of adenosine deaminase” value on adenosine deaminase [4] (Ackerman-Potter plot, FIG. 1) is on record as “"tight-binding" or "pseudo-irreversible" inhibitor”. For the same compound, in data set [5] (0.2 μg/ml), the zone of inhibition at 0.2 µg/mL is 40 mm. The zone of inhibition at 2 µg/mL in data set [5] (2 μg/ml) came to 47 mm. Besides, in data set [5] (20 μg/ml), the zone of inhibition at 20 µg/mL came to 55 mm. The zone of inhibition at 200 µg/mL in data set [5] (200 μg/ml) amounted to 61 mm. Moreover, the zone of inhibition at 2000 µg/mL in data set [5] (2000 μg/ml) was determined as 64 mm.

Values taken from patent US4713372A, “2-chloropentostatin compound having adenosine diaminase inhibitory activity” (Warner-Lambert Company, priority 1985, dated 1987).
